Data from ChEMBL document CHEMBL5120850, “Conformational adjustment overcomes multiple drug-resistance mutants of tropomyosin receptor kinase” (Eur J Med Chem, 2022).

Assays:
[1] = tested on: BaF3; assay: Antitumor activity against mouse Ba/F3 cells expressing in ETV6-TRKC-G623R mutant allografted in BALB/cA mouse assessed as reduction in tumor growth at 30 mg/kg twice daily for 12 to 14 days relative to control; conditions: BaF3, read-out: TGI
[2] = tested on: BaF3; assay: Antitumor activity against mouse Ba/F3 cells expressing in […] wildtype allografted in BALB/cA mouse assessed as reduction in tumor growth at 30 mg/kg twice daily for 12 to 14 days relative to control; assay type: functional; conditions: time 12-14 day, read-out: TGI

Work on `C[C@@H]1CCc2ncc(F)cc2[C@H]2CCCN2c2ccn3ncc(c3n2)C(=O)N1` [SELITRECTINIB] yielded an inhibition in vivo at 30 mg/kg [1] of 73%.

Compound `O=C(Nc1cnn2ccc(N3CCC[C@@H]3c3cc(F)ccc3F)nc12)N1CC[C@H](O)C1` [LAROTRECTINIB] has an inhibition in vivo at 30 mg/kg [2] of 30%.
